According to patent publication US11970494B2, “6-heteroaryloxy benzimidazoles and azabenzimidazoles as JAK2 inhibitors” (Ajax Therapeutics, Inc., priority 2021, dated 2024):

Columns and labels:
[1] = target: T1, JAK1 (Homo sapiens, UniProt P23458); assay: JAK Family Selectivity Assay: JAK1 vs JAK2 binding affinity; conditions: Kd JAK1 over Kd JAK2
T1 construct: made in house; host or cells: T7 phage in BL21-derived E. coli or HEK-293 cells
Description: (§1) Provided compounds are evaluated for selectivity by comparing their JAK2 binding affinity (Kd) in the above JAK2 Binding Assay with their binding affinity (Kd) for one or more other kinases. Binding affinity for other kinases is determined as follows: Kinase-tagged T7 phage strains are prepared in an E. coli host derived from the BL21 strain. E. coli are grown to log-phase and infected with T7 phage and incubated with shaking at 32° C. until lysis. The lysates are centrifuged and filtered to remove cell debris. The remaining kinases are produced in HEK-293 cells and subsequently tagged with DNA for qPCR detection. Streptavidin-coated magnetic beads are treated with biotinylated small molecule ligands for 30 minutes at room temperature to generate affinity resins for kinase assays. The liganded beads are blocked with excess biotin and washed with blocking buffer (SeaBlock (Pierce), 1% BSA, 0.05% Tween 20, 1 mM DTT) to remove unbound ligand and to reduce non-specific binding. Binding reactions are assembled by combining kinases, liganded affinity beads, and test compounds in 1× binding buffer (20% SeaBlock, 0.17×PBS, 0.05% Tween 20, 6 mM DTT). Test compounds are prepared as 111× stocks in 100% DMSO. Kds are determined using an 11-point 3-fold compound dilution series with three DMSO control points. All compounds for Kd measurements are distributed by acoustic transfer (non-contact dispensing) in 100% DMSO. The compounds are then diluted directly into the assays such that the final concentration of DMSO is 0.9%. All reactions are performed in polypropylene 384-well plate. Each has a final volume of 0.02 ml. The assay plates are incubated at room temperature with shaking for 1 hour and the affinity beads are washed with wash buffer (1×PBS, 0.05% Tween 20). The beads are then re-suspended in elution buffer (1× PBS, 0.05% Tween 20, 0.5 μM non-biotinylated affinity ligand) and incubated at room temperature with shaking for 30 minutes. The kinase concentration in the eluates is measured by qPCR. […] In some embodiments, provided compounds may be JAK2-selective over one or more of the following kinases: JAK1, JAK3, and Tyk2.

[2] = target: T2, Tyk2 (Homo sapiens, UniProt P29597); assay: JAK Family Selectivity Assay: Tyk2 vs JAK2 binding affinity; conditions: Kd TYK2 over Kd JAK2
T2 construct: made in house; host or cells: T7 phage in BL21-derived E. coli or HEK-293 cells
Description: as §1

[3] = Hepatocyte Stability Assay, human hepatocytes; assay type: in vitro ADME; conditions: cryopreserved hepatocytes, read-out: Human Heps CLint
Description: 10 mM stock solutions of test compound and positive control are prepared in DMSO. Stock solutions are diluted to 100 μM by combining 198 μL of 50% acetonitrile/50% water and 2 μL of 10 mM stock solution. Verapamil is used as positive control in the assay. Vials of cryopreserved hepatocytes are thawed in a 37° C. water bath with gently shaking. The contents are poured into the 50 mL thawing medium conical tube. Vials are centrifuged at 100 g for 10 minutes at room temperature. Thawing medium is aspirated and hepatocytes are re-suspended with serum-free incubation medium to yield ˜1.5×10^6 cells/mL. Cell viability and density are counted using a Trypan Blue exclusion, and then cells are diluted with serum-free incubation medium to a working cell density of 0.5×10^6 viable cells/mL. A portion of the hepatocytes at 0.5×10^6 viable cells/mL are boiled for 5 min prior to adding to the plate as negative control to eliminate the enzymatic activity so that little or no substrate turnover should be observed. Aliquots of 198 μL hepatocytes are dispensed into each well of a 96-well non-coated plate. The plate is placed in the incubator for approximately 10 minutes. Aliquots of 2 μL of the 100 μM test compound and 2 μL positive control are added into respective wells of a non-coated 96-well plate to start the reaction. The final concentration of test compound is 1 μM. This assay is performed in duplicate. The plate is incubated in the incubator for the designed time points. 25 μL of contents are transferred and mixed with 6 volumes (150 μL) of cold acetonitrile with internal standard (100 nM alprazolam, 200 nM labetalol, 200 nM caffeine and 200 nM diclofenac) to terminate the reaction at time points of 0, 15, 30, 60, 90 and 120 minutes. Samples are centrifuged for 25 minutes at 3,220 g and aliquots of 150 μL of the supernatants are used for LC-MS/MS analysis.

T2 sequence (P29597 whole entry): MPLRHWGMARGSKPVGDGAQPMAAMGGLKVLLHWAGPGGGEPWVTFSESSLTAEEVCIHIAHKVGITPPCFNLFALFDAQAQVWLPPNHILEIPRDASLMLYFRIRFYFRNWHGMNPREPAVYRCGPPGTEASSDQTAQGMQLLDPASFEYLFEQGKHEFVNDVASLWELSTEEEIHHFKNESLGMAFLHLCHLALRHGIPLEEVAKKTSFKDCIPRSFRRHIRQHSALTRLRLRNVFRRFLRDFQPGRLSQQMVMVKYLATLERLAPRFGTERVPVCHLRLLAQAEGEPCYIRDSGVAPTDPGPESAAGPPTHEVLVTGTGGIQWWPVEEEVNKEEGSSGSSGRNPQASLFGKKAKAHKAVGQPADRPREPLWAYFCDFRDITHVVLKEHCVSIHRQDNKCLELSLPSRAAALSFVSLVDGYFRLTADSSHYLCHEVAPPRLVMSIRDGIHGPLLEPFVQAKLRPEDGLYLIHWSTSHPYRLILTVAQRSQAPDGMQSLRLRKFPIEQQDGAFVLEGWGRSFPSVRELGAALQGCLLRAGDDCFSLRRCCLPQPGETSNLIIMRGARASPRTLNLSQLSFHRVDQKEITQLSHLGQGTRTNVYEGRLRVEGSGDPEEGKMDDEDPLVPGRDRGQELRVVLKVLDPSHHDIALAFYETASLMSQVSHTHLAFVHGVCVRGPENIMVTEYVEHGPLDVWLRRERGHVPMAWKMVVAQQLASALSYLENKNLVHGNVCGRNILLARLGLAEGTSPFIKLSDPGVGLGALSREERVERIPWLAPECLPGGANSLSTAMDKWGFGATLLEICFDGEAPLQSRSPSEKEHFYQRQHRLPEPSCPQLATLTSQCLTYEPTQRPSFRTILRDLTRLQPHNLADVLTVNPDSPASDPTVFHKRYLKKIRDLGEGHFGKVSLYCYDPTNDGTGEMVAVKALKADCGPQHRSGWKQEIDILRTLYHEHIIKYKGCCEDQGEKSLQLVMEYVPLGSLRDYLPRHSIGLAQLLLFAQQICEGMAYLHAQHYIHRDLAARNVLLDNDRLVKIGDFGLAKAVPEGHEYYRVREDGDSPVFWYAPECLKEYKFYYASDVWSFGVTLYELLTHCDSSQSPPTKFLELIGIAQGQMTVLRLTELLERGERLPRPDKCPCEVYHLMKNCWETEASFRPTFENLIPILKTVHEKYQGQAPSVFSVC
T1 sequence (P23458 whole entry): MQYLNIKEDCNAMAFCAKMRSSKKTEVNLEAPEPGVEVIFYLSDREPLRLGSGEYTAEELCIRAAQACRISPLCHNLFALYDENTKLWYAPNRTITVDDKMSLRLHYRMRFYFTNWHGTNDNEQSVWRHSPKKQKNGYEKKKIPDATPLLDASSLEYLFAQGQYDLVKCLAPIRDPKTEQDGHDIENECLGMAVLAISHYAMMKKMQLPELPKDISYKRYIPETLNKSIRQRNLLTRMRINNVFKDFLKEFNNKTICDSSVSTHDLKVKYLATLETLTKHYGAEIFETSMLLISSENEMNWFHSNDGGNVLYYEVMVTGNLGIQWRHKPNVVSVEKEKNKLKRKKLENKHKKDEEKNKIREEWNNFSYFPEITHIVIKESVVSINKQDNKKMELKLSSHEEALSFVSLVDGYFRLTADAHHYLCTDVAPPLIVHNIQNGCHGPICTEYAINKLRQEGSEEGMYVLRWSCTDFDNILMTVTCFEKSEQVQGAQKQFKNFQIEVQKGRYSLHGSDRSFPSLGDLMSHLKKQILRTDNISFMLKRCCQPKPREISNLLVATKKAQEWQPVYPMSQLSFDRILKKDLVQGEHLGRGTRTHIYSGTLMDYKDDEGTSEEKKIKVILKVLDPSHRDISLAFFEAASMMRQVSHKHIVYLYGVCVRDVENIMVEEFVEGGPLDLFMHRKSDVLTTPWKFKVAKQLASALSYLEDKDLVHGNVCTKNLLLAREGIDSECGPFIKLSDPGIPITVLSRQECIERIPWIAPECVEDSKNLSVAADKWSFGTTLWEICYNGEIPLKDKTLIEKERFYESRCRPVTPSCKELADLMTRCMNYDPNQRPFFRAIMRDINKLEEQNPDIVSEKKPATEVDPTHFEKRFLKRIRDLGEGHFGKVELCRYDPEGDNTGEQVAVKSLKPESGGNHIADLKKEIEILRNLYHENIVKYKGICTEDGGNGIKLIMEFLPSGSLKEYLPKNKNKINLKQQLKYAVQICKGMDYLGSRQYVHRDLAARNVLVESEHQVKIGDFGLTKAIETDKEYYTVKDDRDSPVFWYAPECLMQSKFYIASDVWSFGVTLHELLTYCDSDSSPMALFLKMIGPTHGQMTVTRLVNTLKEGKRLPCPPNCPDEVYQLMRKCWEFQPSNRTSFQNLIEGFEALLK

Row | Structure (SMILES) | JAK1/JAK2 Kd/Kd ratio [1] | TYK2/JAK2 Kd/Kd ratio [2] | CLint scaled at 1 μM [3] [mL/min/kg]
1 | COC(=O)Nc1cc(Oc2cnc3nc(Nc4cc(C(F)(F)F)cn(C)c4=O)n(C)c3c2C#N)ccn1 [Example I-3, Methyl (4-((7-cyano-1-methyl-2-((1-methyl-2-oxo-5-(trifluoromethyl)-1,2-dihydropyridin-3-yl)amino)-1H-imidazo[4,5-b]pyridin-6-yl)oxy)pyridin-2-yl)carbamate] | A (Kd/Kd ratio ≥1000) | C (Kd/Kd ratio <300 and ≥100) | ≤ 6
2 | CN(C)C(=O)Nc1cc(Oc2cnc3nc(Nc4cc(C(F)(F)F)cn(C)c4=O)n(C)c3c2C#N)ccn1 [Example I-4, 3-(4-((7-cyano-1-methyl-2-((1-methyl-2-oxo-5-(trifluoromethyl)-1,2-dihydropyridin-3-yl)amino)-1H-imidazo[4,5-b]pyridin-6-yl)oxy)pyridin-2-yl)-1,1-dimethylurea] | B (Kd/Kd ratio <1000 and ≥300) | C (Kd/Kd ratio <300 and ≥100) | ≤ 6
3 | Cn1cc(C(F)(F)F)cc(Nc2nc3ncc(Oc4ccnc(NC(=O)N5CCC5)c4)c(C#N)c3n2C)c1=O [Example I-7, N-(4-((7-cyano-1-methyl-2-((1-methyl-2-oxo-5-(trifluoromethyl)-1,2-dihydropyridin-3-yl)amino)-1H-imidazo[4,5-b]pyridin-6-yl)oxy)pyridin-2-yl)azetidine-1-carboxamide] | A (Kd/Kd ratio ≥1000) | D (Kd/Kd ratio <100) | ≤ 6
4 | CO[C@H]1CCN(C(=O)Nc2cc(Oc3cnc4nc(Nc5cc(C(F)(F)F)cn(C)c5=O)n(C)c4c3C#N)ccn2)C1 [Example I-14, (S)-N-(4-((7-cyano-1-methyl-2-((1-methyl-2-oxo-5-(trifluoromethyl)-1,2-dihydropyridin-3-yl)amino)-1H-imidazo[4,5-b]pyridin-6-yl)oxy)pyridin-2-yl)-3-methoxypyrrolidine-1-carboxamide] | A (Kd/Kd ratio ≥1000) | C (Kd/Kd ratio <300 and ≥100) | ≤ 6
5 | Cn1cc(C(F)(F)F)cc(Nc2nc3ncc(Oc4ccnc(NC(=O)OCCN5CCOCC5)c4)c(C#N)c3n2C)c1=O [Example I-15, 2-Morpholinoethyl(4-((7-cyano-1-methyl-2-((1-methyl-2-oxo-5-(trifluoromethyl)-1,2-dihydropyridin-3-yl)amino)-1H-imidazo[4,5-b]pyridin-6-yl)oxy)pyridin-2-yl)carbamate] | B (Kd/Kd ratio <1000 and ≥300) | B (Kd/Kd ratio <1000 and ≥300) | ≤ 6
6 | Cn1cc(C(F)(F)F)cc(Nc2nc3ncc(Oc4ccnc(NC(=O)O[C@@H]5CCOC5)c4)c(C#N)c3n2C)c1=O [Example I-18, (R)-Tetrahydrofuran-3-yl(4-((7-cyano-1-methyl-2-((1-methyl-2-oxo-5-(trifluoromethyl)-1,2-dihydropyridin-3-yl)amino)-1H-imidazo[4,5-b]pyridin-6-yl)oxy)pyridin-2-yl)carbamate] | C (Kd/Kd ratio <300 and ≥100) | C (Kd/Kd ratio <300 and ≥100) | 6 to 12
7 | COC1CN(C(=O)Nc2cc(Oc3cnc4nc(Nc5cc6n(n5)CCCC6(F)F)n(C)c4c3C#N)ccn2)C1 [Example I-26, N-(4-((7-cyano-2-((4,4-difluoro-4,5,6,7-tetrahydropyrazolo[1,5-a]pyridin-2-yl)amino)-1-methyl-1H-imidazo[4,5-b]pyridin-6-yl)oxy)pyridin-2-yl)-3-methoxyazetidine-1-carboxamide] | – | – | 6 to 12
8 | Cn1c(Nc2cc3n(n2)CCOC3(C)C)nc2ncc(Oc3ccnc(NC(=O)O[C@@H]4CCOC4)c3)c(C#N)c21 [Example I-48, (R)-Tetrahydrofuran-3-yl(4-((7-cyano-2-((4,4-dimethyl-6,7-dihydro-4H-pyrazolo[5,1-c][1,4]oxazin-2-yl)amino)-1-methyl-1H-imidazo[4,5-b]pyridin-6-yl)oxy)pyridin-2-yl)carbamate] | – | – | 6 to 12
9 | CN(C)C(=O)Nc1cc(Oc2cnc3nc(Nc4cc5n(n4)CCC54CCC4)n(C)c3c2C#N)ccn1 [Example I-56, 3-(4-((7-cyano-2-((5′,6′-dihydrospiro[cyclobutane-1,4′-pyrrolo[1,2-b]pyrazol]-2′-yl)amino)-1-methyl-1H-imidazo[4,5-b]pyridin-6-yl)oxy)pyridin-2-yl)-1,1-dimethylurea] | – | – | ≤ 6
10 | COC(=O)Nc1cc(Oc2cnc3nc(Nc4cc5n(n4)CCC54CCC4)n(C)c3c2C#N)ccn1 [Example I-57, methyl(4-((7-cyano-2-((5′,6′-dihydrospiro[cyclobutane-1,4′-pyrrolo[1,2-b]pyrazol]-2′-yl)amino)-1-methyl-1H-imidazo[4,5-b]pyridin-6-yl)oxy)pyridin-2-yl)carbamate] | – | – | 6 to 12
11 | CO[C@@H]1CCN(C(=O)Nc2cc(Oc3cnc4nc(Nc5cc6n(n5)CCC65CCC5)n(C)c4c3C#N)ccn2)C1 [Example I-60, (R)-N-(4-((7-cyano-2-((5′,6′-dihydrospiro[cyclobutane-1,4′-pyrrolo[1,2-b]pyrazol]-2′-yl)amino)-1-methyl-1H-imidazo[4,5-b]pyridin-6-yl)oxy)pyridin-2-yl)-3-methoxypyrrolidine-1-carboxamide] | B (Kd/Kd ratio <1000 and ≥300) | D (Kd/Kd ratio <100) | 6 to 12
12 | COC1CN(C(=O)Nc2cc(Oc3cnc4nc(Nc5cc6n(n5)CCC65CCC5)n(C)c4c3C#N)ccn2)C1 [Example I-61, N-(4-((7-cyano-2-((5′,6′-dihydrospiro[cyclobutane-1,4′-pyrrolo[1,2-b]pyrazol]-2′-yl)amino)-1-methyl-1H-imidazo[4,5-b]pyridin-6-yl)oxy)pyridin-2-yl)-3-methoxyazetidine carboxamide] | A (Kd/Kd ratio ≥1000) | D (Kd/Kd ratio <100) | ≤ 6
13 | COCCOC(=O)Nc1cc(Oc2cnc3nc(Nc4cc5n(n4)CCC54CCC4)n(C)c3c2C#N)ccn1 [Example I-62, 2-methoxyethyl(4-((7-cyano-2-((5′,6′-dihydrospiro[cyclobutane-1,4′-pyrrolo[1,2-b]pyrazol]-2′-yl)amino)-1-methyl-1H-imidazo[4,5-b]pyridin-6-yl)oxy)pyridin-2-yl)carbamate] | B (Kd/Kd ratio <1000 and ≥300) | C (Kd/Kd ratio <300 and ≥100) | 6 to 12
14 | CC(=O)Nc1cc(Oc2cnc3nc(Nc4cc5n(n4)CCCC54CC4)n(C)c3c2C#N)ccn1 [Example I-114, N-(4-((7-cyano-2-((6′,7′-dihydro-5′H-spiro[cyclopropane-1,4′-pyrazolo[1,5-a]pyridin]-2′-yl)amino)-1-methyl-1H-imidazo[4,5-b]pyridin-6-yl)oxy)pyridin-2-yl)acetamide] | – | – | 6 to 12
15 | CC(=O)Nc1cc(Oc2cnc3nc(Nc4cc5n(n4)CCOCC5(C)C)n(C)c3c2C#N)ccn1 [Example I-118, N-(4-((7-cyano-2-((4,4-dimethyl-4,5,7,8-tetrahydropyrazolo[1,5-d][1,4]oxazepin-2-yl)amino)-1-methyl-1H-imidazo[4,5-b]pyridin-6-yl)oxy)pyridin-2-yl)acetamide] | – | – | ≤ 6
